These results are taken from US20220233441A1, “MIC[…] SYSTEMS FOR CANNABIS EXTRACTS AND […]” (Quicksilver Scientific, Inc., priority 2019, published 2022).

The data set is described as follows: Formation of shelf-stable and visually clear MOIW microemulsions with different constituents. The class given is physicochemical. The source says: A shelf-stable microemulsion may be determined in one of two ways. […] Either type of dissociation means that the microemulsion is not shelf-stable.
A visually clear microemulsion has an average particle diameter of 200 nm and less and lacks precipitated solid crystals visible to the naked eye.

“Also recorded” adds a separate entry of the source.

As for `OC[C@@H](O)[C@H](O)[C@@H](O)CO` [xylitol], the “usefulness of the constituent for forming shelf-stable and visually clear MOIW microemulsions” value (“usefulness of the constituent” for short) is recorded as “not useful”.

Take `OC[C@@H](O)[C@@H](O)[C@H](O)[C@@H](O)CO` [sorbitol]: the “usefulness of the constituent” value was “not useful”.

Take `OC[C@@H](O)[C@@H](O)CO` [erythritol]: the “usefulness of the constituent” value is given as “not useful”.

For the molecule polysorbate 20, the “usefulness of the constituent” value was “did not form shelf-stable and visually clear microemulsions; also recorded: not useful”.

Turning to `OC[C@@H](O)[C@@H](O)[C@H](O)[C@H](O)CO` [mannitol], the “usefulness of the constituent” value is listed as “not useful”.
